Results published in US20060293315A1, “Intermediates of novel heterocyclic compounds having antibacterial activity and process for their preparation” (Dr. Reddy's Laboratories Ltd., priority 2001, published 2006).
Converted amounts (≈) assume the structure as drawn. Values belong to the compound of their own block, whether it stands above or below them.

Columns and labels:
[1] = tested on: Staphylococcus aureus 019 MRSA (ATCC 33591); assay: MIC by broth microdilution, Staphylococcus aureus 019 MRSA; type: cell-based; conditions: DRCC 019, MRSA, broth microdilution in MHB, read-out: Antimicrobial Screening (MIC) Staphylococcus aureus 019 MRSA
Description: (§1) Minimum Inhibiton Concentrations (MICs) were determined by broth microdilution technique as per the guidelines prescribed in the fifth edition of Approved Standards, NCCLS document M7-A5 Vol 20-No 2, 2000 Villinova, Pa.
(§2) Initial stock solution of the test compound was prepared in DMSO. Subsequent two fold dilutions were carried out in sterile Mueller Hinton Broth (Difco) (MHB).
(§3) Frozen cultures stocks were inoculated into 50 ml sterile MHB in 250 ml Erlyn Meyer flasks.
(§4) Composition of MHB is as follows:
(§5) Flasks were incubated for 4 to 5 h at 35° C. on a rotary shaker at 150 rpm. Inoculum was prepared by diluting the culture in sterile MHB to obtain a turbidity of 0.5 McFarland standard. This corresponds to 1-2×10^8 CFU/ml. The stock was further diluted in sterile broth to obtain 1-2×10^6 CFU/ml. 50 μl of the above diluted inoculum was added from 1-10 wells. The plates were incubated overnight at 37° C.

[2] = tested on: Staphylococcus aureus 213 Smith S (ATCC 49951); assay: MIC by broth microdilution, Staphylococcus aureus 213 Smith S; type: cell-based; conditions: ATCC49951, DRCC 213, Smith S, broth microdilution in MHB, read-out: Antimicrobial Screening (MIC) Staphylococcus aureus 213 Smith S
Description: as §1, §2, §3, §4, §5

[3] = tested on: Staphylococcus aureus 035 S (ATCC 29213); assay: MIC by broth microdilution, Staphylococcus aureus 035 S; type: cell-based; conditions: ATCC29213, DRCC 035, S, broth microdilution in MHB, read-out: Antimicrobial Screening (MIC) Staphylococcus aureus 035 S
Description: as §1, §2, §3, §4, §5

[4] = tested on: Enterococcus sp 034 S (Enterococcus faecalis ATCC 29212); assay: MIC by broth microdilution, Enterococcus sp 034 S; type: cell-based; conditions: ATCC29212, DRCC 034, S, broth microdilution in MHB, read-out: Antimicrobial Screening (MIC) Enterococcus sp 034 S
Description: as §1, §2, §3, §4, §5

[5] = tested on: Enterococcus sp 153 R (Enterococcus faecalis NCTC 12201); assay: MIC by broth microdilution, Enterococcus sp 153 R; type: cell-based; conditions: NCTC12201, DRCC 153, R, broth microdilution in MHB, read-out: Antimicrobial Screening (MIC) Enterococcus sp 153 R
Description: as §1, §2, §3, §4, §5

[6] = tested on: Enterococcus sp 154 R (Enterococcus faecium NCTC 12202); assay: MIC by broth microdilution, Enterococcus sp 154 R; type: cell-based; conditions: NCTC12202, DRCC 154, R, broth microdilution in MHB, read-out: Antimicrobial Screening (MIC) Enterococcus sp 154 R
Description: as §1, §2, §3, §4, §5

[7] = tested on: Mycobacterium MTCC 006; assay: MIC by broth microdilution, Mycobacterium MTCC 006; type: cell-based; conditions: MTCC006, broth microdilution in MHB, read-out: Antimicrobial Screening (MIC) Mycobacterium MTCC 006
Description: as §1, §2, §3, §4, §5

[8] = tested on: Salmorella TA 97; assay: MIC by broth microdilution, Salmorella TA 97; type: cell-based; conditions: read-out: Antimicrobial Screening (MIC) Salmorella TA 97
Description: as §1, §2, §3, §4, §5

[9] = tested on: M. catarrhalis 300 (Moraxella catarrhalis ATCC 25238); assay: MIC by broth microdilution, M. catarrhalis 300; type: cell-based; conditions: ATCC25238, DRCC 300, broth microdilution in MHB, read-out: Antimicrobial Screening (MIC) M. catarrhalis 300
Description: as §1, §2, §3, §4, §5

[10] = tested on: H. influenzae 432 (Haemophilus influenzae ATCC 49247); assay: MIC by broth microdilution, H. influenzae 432; type: cell-based; conditions: ATCC49247, DRCC 432, broth microdilution in MHB, read-out: Antimicrobial Screening (MIC) H. influenzae 432
Description: as §1, §2, §3, §4, §5

[11] = tested on: H. influenzae 433 (Haemophilus influenzae ATCC 49766); assay: MIC by broth microdilution, H. influenzae 433; type: cell-based; conditions: ATCC49766, DRCC 433, broth microdilution in MHB, read-out: Antimicrobial Screening (MIC) H. influenzae 433
Description: as §1, §2, §3, §4, §5

[12] = tested on: H. influenzae 529 (Haemophilus influenzae ATCC 9006); assay: MIC by broth microdilution, H. influenzae 529; type: cell-based; conditions: ATCC9006, DRCC 529, broth microdilution in MHB, read-out: Antimicrobial Screening (MIC) H. influenzae 529
Description: as §1, §2, §3, §4, §5

- melting point: 160 °C
Compound: COCN1CN(c2ccc(N3C[C@H](CNC(=S)OC)OC3=O)cc2F)CC1=O [Example 178]

- melting point: 176 °C
Compound: COC(=S)NC[C@H]1CN(c2ccc(N3CC(=O)N(Cc4ccccc4)C3)c(F)c2)C(=O)O1 [Example 179]

- melting point: 184 °C
Compound: CCOC(=S)NC[C@H]1CN(c2ccc(N3CC(=O)N(Cc4ccccc4)C3)c(F)c2)C(=O)O1 [Example 180]

- melting point: 159 °C
Compound: O=C1OCCN1c1ccc(N2C[C@H](CNC(=S)N3CCC[C@H]3CO)OC2=O)cc1 [Example 182]

- melting point: 103 °C
Compound: CCN(CC)C(=S)NC[C@H]1CN(c2ccc(N3CCOC3=O)cc2)C(=O)O1 [Example 183]

- melting point: 171 °C
Compound: C=CCNC(=S)NC[C@H]1CN(c2ccc(N3CCOC3=O)cc2)C(=O)O1 [Example 184]

- melting point: 181 °C
Compound: O=C1OCCN1c1ccc(N2C[C@H](CNC(=S)NCc3ccccc3)OC2=O)cc1 [Example 185]

- melting point: 169 °C
Compound: COc1ccc(CNC(=S)NC[C@H]2CN(c3ccc(N4CCOC4=O)cc3)C(=O)O2)cc1 [Example 186]

- melting point: 165 °C
Compound: O=C1OCCN1c1ccc(N2C[C@H](CNC(=S)NCc3ccccn3)OC2=O)cc1 [Example 187]

- melting point: 175 °C
Compound: CNC(=S)NC[C@H]1CN(c2ccc(N3CCOC3=O)cc2)C(=O)O1 [Example 188]

- melting point: 161 °C
Compound: O=C1OCCN1c1ccc(N2C[C@H](CNC(=S)NCCO)OC2=O)cc1 [Example 189]

- melting point: 159 °C
Compound: O=C1OCCN1c1ccc(N2C[C@H](CNC(=S)N3CCSCC3)OC2=O)cc1 [Example 190]

- melting point: 189 °C
Compound: O=C1OCCN1c1ccc(N2C[C@H](CNC(=S)Nc3ccccn3)OC2=O)cc1 [Example 191]

- melting point: 178 °C
Compound: NC(=S)NC[C@H]1CN(c2ccc(N3CCOC3=O)c(F)c2)C(=O)O1 [Example 192]

- melting point: 144 °C
Compound: CNC(=S)NC[C@H]1CN(c2ccc(N3CCOC3=O)c(F)c2)C(=O)O1 [Example 193]

- melting point: 92 °C
Compound: NC(=S)NC[C@H]1CN(c2cc(F)c(N3CCOC3=O)c(F)c2)C(=O)O1 [Example 194]

- melting point: 113 °C
Compound: CNC(=S)NC[C@H]1CN(c2cc(F)c(N3CCOC3=O)c(F)c2)C(=O)O1 [Example 195]

- melting point: 154 to 156 °C
Compound: COC(=S)N(C)C[C@H]1CN(c2cc(F)c(N3CNC(=O)C3)c(F)c2)C(=O)O1 [Example 198]

The next lines start with the compound.

Compound: COC(=S)NC[C@H]1CN(c2ccc(N3CC(=O)N(Cc4ccc(OC)cc4)C3)c(F)c2)C(=O)O1 [Example 153]
- melting point: 158 °C

Compound: CC(C)OC(=S)NC[C@H]1CN(c2ccc(N3CC(=O)N(Cc4ccccc4)C3)c(F)c2)C(=O)O1 [Example 154]
- melting point: 192 °C

Compound: COC(=S)NC[C@H]1CN(c2ccc(N3CC(=O)N(CO)C3)c(F)c2)C(=O)O1 [Example 155]
- melting point: 184 °C

Compound: COC(=S)NC[C@H]1CN(c2ccc(N3CC(=O)N(CO)C3)cc2)C(=O)O1 [Example 157]
- melting point: 202 to 208 °C

Compound: COC(=S)NC[C@H]1CN(c2ccc(N3CNC(=O)C3)cc2)C(=O)O1 [Example 158]
- melting point: 205 to 210 °C

Compound: CCCCN1CN(c2ccc(N3C[C@H](CNC(=S)OC)OC3=O)cc2F)CC1=O [Example 160]
- melting point: 122 °C

Compound: C=CCN1CN(c2ccc(N3C[C@H](CNC(=S)OC)OC3=O)cc2F)CC1=O [Example 161]
- melting point: 86 °C

Compound: COC(=S)NC[C@H]1CN(c2cc(F)c(N3CC(=O)N(C)C3)c(F)c2)C(=O)O1 [Example 164]
- MIC [1]: 0.25 µg/mL (≈ 0.624 µM)
- MIC [2]: 0.5 µg/mL (≈ 1.25 µM)
- MIC [3]: 0.5 µg/mL (≈ 1.25 µM)
- MIC [4]: 0.5 µg/mL (≈ 1.25 µM)
- MIC [5]: 0.5 µg/mL (≈ 1.25 µM)
- MIC [6]: 0.5 µg/mL (≈ 1.25 µM)
- MIC [7]: 4 µg/mL (≈ 9.99 µM)
- MIC [8]: 16 µg/mL (≈ 40 µM)
- MIC [9]: 8 µg/mL (≈ 20 µM)
- MIC [10]: 8 µg/mL (≈ 20 µM)
- MIC [11]: 16 µg/mL (≈ 40 µM)
- MIC [12]: 16 µg/mL (≈ 40 µM)

Compound: CCCOC(=S)NC[C@H]1CN(c2cc(F)c(N3CNC(=O)C3)c(F)c2)C(=O)O1 [Example 165]
- MIC [1]: 1 µg/mL (≈ 2.41 µM)
- MIC [2]: 1 µg/mL (≈ 2.41 µM)
- MIC [3]: 1 µg/mL (≈ 2.41 µM)
- MIC [4]: 2 µg/mL (≈ 4.83 µM)
- MIC [5]: 2 µg/mL (≈ 4.83 µM)
- MIC [6]: 2 µg/mL (≈ 4.83 µM)
- MIC [7]: 32 µg/mL (≈ 77.2 µM)
- MIC [8]: 32 µg/mL (≈ 77.2 µM)
- MIC [9]: > 32 µg/mL
- MIC [10]: > 32 µg/mL
- MIC [11]: > 32 µg/mL
- MIC [12]: > 32 µg/mL
- melting point: 186 to 188 °C

Compound: CCOC(=S)NC[C@H]1CN(c2cc(F)c(N3CNC(=O)C3)c(F)c2)C(=O)O1 [Example 166]
- MIC [1]: 0.5 µg/mL (≈ 1.25 µM)
- MIC [2]: 0.5 µg/mL (≈ 1.25 µM)
- MIC [3]: 0.5 µg/mL (≈ 1.25 µM)
- MIC [4]: 1 µg/mL (≈ 2.5 µM)
- MIC [5]: 1 µg/mL (≈ 2.5 µM)
- MIC [6]: 1 µg/mL (≈ 2.5 µM)
- MIC [7]: 32 µg/mL (≈ 79.9 µM)
- MIC [8]: 32 µg/mL (≈ 79.9 µM)
- MIC [9]: 32 µg/mL (≈ 79.9 µM)
- MIC [10]: > 32 µg/mL
- MIC [11]: > 32 µg/mL
- MIC [12]: > 32 µg/mL
- melting point: 178 to 180 °C

Compound: CC(C)OC(=S)NC[C@H]1CN(c2cc(F)c(N3CNC(=O)C3)c(F)c2)C(=O)O1 [Example 167]
- MIC [1]: 2 µg/mL (≈ 4.83 µM)
- MIC [2]: 2 µg/mL (≈ 4.83 µM)
- MIC [3]: 2 µg/mL (≈ 4.83 µM)
- MIC [4]: 8 µg/mL (≈ 19.3 µM)
- MIC [5]: 4 µg/mL (≈ 9.65 µM)
- MIC [6]: 8 µg/mL (≈ 19.3 µM)
- MIC [7]: 32 µg/mL (≈ 77.2 µM)
- MIC [8]: 32 µg/mL (≈ 77.2 µM)
- MIC [9]: > 32 µg/mL
- MIC [10]: > 32 µg/mL
- MIC [11]: > 32 µg/mL
- MIC [12]: > 32 µg/mL
- melting point: 176 to 178 °C

Compound: COC(=S)NC[C@H]1CN(c2cc(F)c(N3CC(=O)N(CC(=O)OC(C)(C)C)C3)c(F)c2)C(=O)O1 [Example 168]
- MIC [1]: 2 µg/mL (≈ 4 µM)
- MIC [2]: 2 µg/mL (≈ 4 µM)
- MIC [3]: 2 µg/mL (≈ 4 µM)
- MIC [4]: 2 µg/mL (≈ 4 µM)
- MIC [5]: 1 µg/mL (≈ 2 µM)
- MIC [6]: 2 µg/mL (≈ 4 µM)
- MIC [7]: 32 µg/mL (≈ 63.9 µM)
- MIC [8]: 32 µg/mL (≈ 63.9 µM)

Compound: COC(=O)CN1CN(c2c(F)cc(N3C[C@H](CNC(=S)OC)OC3=O)cc2F)CC1=O [Example 169]
- MIC [1]: 1 µg/mL (≈ 2.18 µM)
- MIC [2]: 1 µg/mL (≈ 2.18 µM)
- MIC [3]: 2 µg/mL (≈ 4.36 µM)
- MIC [4]: 0.5 µg/mL (≈ 1.09 µM)
- MIC [5]: 0.5 µg/mL (≈ 1.09 µM)
- MIC [6]: 1 µg/mL (≈ 2.18 µM)
- MIC [7]: 8 µg/mL (≈ 17.5 µM)
- MIC [8]: 32 µg/mL (≈ 69.8 µM)

Compound: COC(=S)NC[C@H]1CN(c2ccc(N3CC(=S)N(C)C3)c(F)c2)C(=O)O1 [Example 177]
- melting point: 195 °C
